Reference: US9346761B2, “Arginine methyltransferase inhibitors and uses thereof” (Epizyme, Inc., priority 2013, dated 2016)
Where two headings read alike, the source gives them in different places.

What was measured:
[1] = system: mono-methyl arginine in RKO cells; assay: RKO methylation assay, In Cell Western for mono-methyl arginine and DNA content; type: cell-based; settings: Homo sapiens
Full-length human PRMT3 = molecular target: T1, Full-length human PRMT3 (Homo sapiens, UniProt O60678); assay: PRMT3 biochemical assay (3H-SAM Flashplate, peptide substrate)
T1 construct: GST-tagged PRMT3; made in house; host or cells: E. coli BL21(DE3) Gold (pGEX-KG)
In short: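 GST-tagged full-length PRMT3 (0.5 nM, E. coli-expressed) preincubated 30 min at room temperature with compound, then 330 nM biotinylated peptide, 100 nM 3H-SAM plus 1.8 uM SAM in Bicine pH 7.6, 2% DMSO.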

[2] = In Cell Western, RKO cells, 72 hours, percent activation of mono-methyl arginine signal, read-out: EC30

T1 sequence (O60678 with tags, fused parts or gaps): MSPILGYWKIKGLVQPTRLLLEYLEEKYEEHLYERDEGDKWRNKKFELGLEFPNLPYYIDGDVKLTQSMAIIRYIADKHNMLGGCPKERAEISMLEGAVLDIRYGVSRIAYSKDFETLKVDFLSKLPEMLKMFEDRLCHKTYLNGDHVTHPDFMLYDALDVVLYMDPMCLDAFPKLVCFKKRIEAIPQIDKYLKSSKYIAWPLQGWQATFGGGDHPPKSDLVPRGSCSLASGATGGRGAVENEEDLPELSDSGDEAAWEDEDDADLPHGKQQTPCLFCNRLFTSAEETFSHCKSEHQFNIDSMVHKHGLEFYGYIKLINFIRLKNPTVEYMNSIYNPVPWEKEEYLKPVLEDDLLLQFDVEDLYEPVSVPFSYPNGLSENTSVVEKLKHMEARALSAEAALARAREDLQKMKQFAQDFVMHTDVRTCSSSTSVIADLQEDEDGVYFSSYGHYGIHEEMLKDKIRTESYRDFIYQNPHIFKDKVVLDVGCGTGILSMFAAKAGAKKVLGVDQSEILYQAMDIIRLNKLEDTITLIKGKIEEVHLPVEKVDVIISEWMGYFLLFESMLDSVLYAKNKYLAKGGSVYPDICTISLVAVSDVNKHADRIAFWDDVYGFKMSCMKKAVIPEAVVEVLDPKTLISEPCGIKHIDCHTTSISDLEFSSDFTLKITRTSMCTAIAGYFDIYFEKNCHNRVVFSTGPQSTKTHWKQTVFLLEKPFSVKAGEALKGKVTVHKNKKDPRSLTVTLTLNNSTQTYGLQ

| Structure (SMILES) | EC30 [1, 2] [µM] | IC50 (Full-length human PRMT3) [µM] | EC30 ([1]; RKO, 72 h) [µM] |
| --- | --- | --- | --- |
| CN(CCN)Cc1cn[nH]c1-c1ccc(F)cc1 [Compound 1] | 3.01 to 12 | 1.01 to 3 | – |
| CNCCN(C)Cc1c[nH]nc1-c1ccc(F)cc1 [Compound 2, N^1-((3-(4-fluorophenyl)-1H-pyrazol-4-yl)methyl)-N^1,N^2-dimethylethane-1,2-diamine] | – | 3.01 to 10 | > 12 |
| CN(CCN)Cc1cn(C)nc1-c1ccc(F)cc1 [Compound 3] | > 12 | > 10 | – |
| CN(CCN)Cc1cnn(C)c1-c1ccc(F)cc1 [Compound 4] | – | > 10 | > 12 |
| CCN(CCNC)Cc1c[nH]nc1-c1ccc(F)cc1 [Compound 9] | > 12 | 3.01 to 10 | – |
| CNCCN(C)Cc1cnn(C)c1-c1ccc(F)cc1 [Compound 10] | > 12 | > 10 | – |
| CNCCN(C)Cc1cn(CC2CCOCC2)nc1-c1ccc(F)cc1 [Compound 11] | > 12 | > 10 | – |
| CNCCN(C)Cc1cnn(CC2CCOCC2)c1-c1ccc(F)cc1 [Compound 12] | > 12 | > 10 | – |
| CNCCN(C)Cc1c[nH]nc1-c1cccc(N)c1 [Compound 32] | > 12 | 1.01 to 3 | – |
| CNCCN(C)Cc1c[nH]nc1-c1ccc(CC#N)cc1 [Compound 34] | > 12 | > 10 | – |
| CNCCN(C)Cc1c[nH]nc1-c1ccccc1O [Compound 35] | > 12 | > 10 | – |
| CNCCN(C)Cc1c[nH]nc1-c1ccccc1Oc1ccccc1 [Compound 36] | > 12 | > 10 | – |
| CNCCN(C)Cc1c[nH]nc1-c1cccc(OC(F)(F)F)c1 [Compound 39] | > 12 | > 10 | – |
| CNCCN(C)Cc1c[nH]nc1-c1ccccc1NS(C)(=O)=O [Compound 41] | > 12 | > 10 | – |
| CNCCN(C)Cc1c[nH]nc1-c1cccc(NC(C)=O)c1 [Compound 42] | > 12 | 1.01 to 3 | – |
| CNCCN(C)Cc1c[nH]nc1-c1cccc(C(C)=O)c1 [Compound 44] | > 12 | 3.01 to 10 | – |
| CNCCN(C)Cc1c[nH]nc1-c1ccc(C(=O)c2ccccc2)cc1 [Compound 45] | < 3 | 3.01 to 10 | – |
| CNCCN(C)Cc1c[nH]nc1-c1ccccc1-c1ccccc1 [Compound 46] | > 12 | > 10 | – |
| CNCCN(C)Cc1c[nH]nc1-c1ccc(-c2ccccc2)cc1 [Compound 47] | < 3 | 0.101 to 1 | – |
| CNCCN(C)Cc1c[nH]nc1-c1ccccc1F [Compound 48] | > 12 | > 10 | – |
| CNCCN(C)Cc1c[nH]nc1-c1ccc(F)cc1F [Compound 49] | > 12 | 3.01 to 10 | – |
| CNCCN(C)Cc1c[nH]nc1-c1cc(F)ccc1F [Compound 50] | > 12 | > 10 | – |
| CNCCN(C)Cc1c[nH]nc1-c1ccc(F)c(F)c1 [Compound 51] | > 12 | 3.01 to 10 | – |

| Structure (SMILES) | EC30 [1, 2] [µM] | IC50 (Full-length human PRMT3) [µM] | EC30 ([1]; RKO, 72 h) [µM] |
| --- | --- | --- | --- |
| CNCCN(C)Cc1c[nH]nc1-c1ccc(OC)c(F)c1 [Compound 52] | > 12 | 3.01 to 10 | – |
| CNCCN(C)Cc1c[nH]nc1-c1cc(Cl)ccc1OC [Compound 53] | > 12 | > 10 | – |
| CNCCN(C)Cc1c[nH]nc1-c1cccc(OC)c1OC [Compound 54] | > 12 | > 10 | – |
| CNCCN(C)Cc1c[nH]nc1-c1ccc(OC)cc1OC [Compound 55] | > 12 | > 10 | – |
| CNCCN(C)Cc1c[nH]nc1-c1c(OC)cccc1OC [Compound 56] | > 12 | > 10 | – |
| CNCCN(C)Cc1c[nH]nc1-c1cccc2ccccc12 [Compound 57] | > 12 | 3.01 to 10 | – |
| CNCCN(C)Cc1c[nH]nc1-c1ccc2ccccc2c1 [Compound 58] | > 12 | 3.01 to 10 | – |
| CNCCN(C)Cc1cn(CCC(O)CO)nc1-c1ccc(F)cc1 (centres unmarked) [Compound 59] | > 12 | > 10 | – |
| CCNCCN(C)Cc1c[nH]nc1-c1ccc(F)cc1 [Compound 60] | > 12 | > 10 | – |
| COCCn1cc(CN(C)CCN(C)C)c(-c2ccc(F)cc2)n1 [Compound 61] | > 12 | > 10 | – |
| CCN(CCN)Cc1c[nH]nc1-c1ccc(F)cc1 [Compound 62] | > 12 | 3.01 to 10 | – |
| CCCN(CCN)Cc1c[nH]nc1-c1ccc(F)cc1 [Compound 63] | > 12 | > 10 | – |
| COCCn1ncc(CN(C)CCN(C)C)c1-c1ccc(F)cc1 [Compound 64] | – | > 10 | > 12 |
| CN(CCN)Cc1cnn(CCO)c1-c1ccc(F)cc1 [Compound 65] | > 12 | > 10 | – |
| CN(CCN)Cc1cn(CCO)nc1-c1ccc(F)cc1 [Compound 66] | > 12 | > 10 | – |
| CC(C)Oc1ccc(-c2n[nH]cc2CN(C)CCN)cc1 [Compound 67] | > 12 | 3.01 to 10 | – |
| CN(CCN)Cc1c[nH]nc1-c1ccc(C#N)cc1 [Compound 68] | > 12 | 3.01 to 10 | – |
| CN(CCN)Cc1n[nH]cc1-c1ccc(F)cc1 [Compound 69] | 3.01 to 12 | > 10 | – |
| CN(CCN)Cc1c[nH]nc1-c1cccc(C#N)c1 [Compound 70] | > 12 | > 10 | – |
| CN(CCN)Cc1c[nH]nc1-c1cccc(F)c1 [Compound 71] | 3.01 to 12 | > 10 | – |
| CN(CCN)Cc1c[nH]nc1-c1ccccc1F [Compound 72] | > 12 | > 10 | – |
| CN(CCN)Cc1c[nH]nc1-c1ccccc1 [Compound 73] | > 12 | > 10 | – |
| CN(CCN)Cc1c[nH]nc1-c1ccc(C(C)(C)C)cc1 [Compound 74] | 3.01 to 12 | > 10 | – |

| Structure (SMILES) | EC30 [1, 2] [µM] | IC50 (Full-length human PRMT3) [µM] | EC30 ([1]; RKO, 72 h) [µM] |
| --- | --- | --- | --- |
| CC(C)N(CCN)Cc1c[nH]nc1-c1ccc(F)cc1 [Compound 75] | > 12 | > 10 | – |
| CN(CCN)Cc1cn(CC(O)CO)nc1-c1ccc(F)cc1 (centres unmarked) [Compound 76] | > 12 | > 10 | – |
| CN(CCN)Cc1cn(C2COC2)nc1-c1ccc(F)cc1 [Compound 77] | – | 3.01 to 10 | > 12 |
| NCCN(Cc1c[nH]nc1-c1ccc(F)cc1)C1CC1 [Compound 78] | 3.01 to 12 | > 10 | – |
| CN(CCN)Cc1cn(CC2COC2)nc1-c1ccc(F)cc1 [Compound 79] | > 12 | > 10 | – |
| CN(CCN)Cc1cnn(CC2COC2)c1-c1ccc(F)cc1 [Compound 80] | > 12 | > 10 | – |
| CN(CCN)Cc1cnn(C2COC2)c1-c1ccc(F)cc1 [Compound 81] | > 12 | > 10 | – |
| CN(CCN)Cc1c[nH]nc1-c1ccc(N2CCNCC2)cc1 [Compound 82] | > 12 | 1.01 to 3 | – |
| CN(CCN)Cc1nn(C)cc1-c1ccc(C#N)cc1 [Compound 83] | 3.01 to 12 | > 10 | – |
| CN(CCN)Cc1c(-c2ccc(C#N)cc2)cnn1C [Compound 84] | > 12 | > 10 | – |
| CN(CCN)Cc1c[nH]nc1-c1ccc(C(F)(F)F)cc1C(F)(F)F [Compound 85] | – | > 10 | > 12 |
| CN(CCN)Cc1c[nH]nc1-c1ccc(Cl)cc1Cl [Compound 86] | 3.01 to 12 | 3.01 to 10 | – |
| COc1ccc(-c2n[nH]cc2CN(C)CCN)c(OC)c1 [Compound 87] | > 12 | > 10 | – |
| Cc1ccc(-c2n[nH]cc2CN(C)CCN)c(C)c1 [Compound 88] | > 12 | 3.01 to 10 | – |
| CN(CCN)Cc1c[nH]nc1-c1ccc(F)cc1Cl [Compound 89] | 3.01 to 12 | 3.01 to 10 | – |
| Cc1ccc(-c2n[nH]cc2CN(C)CCN)c(Cl)c1 [Compound 90] | 3.01 to 12 | 3.01 to 10 | – |
| Cc1ccc(Cl)c(-c2n[nH]cc2CN(C)CCN)c1 [Compound 91] | > 12 | > 10 | – |
| CN(CCN)Cc1c[nH]nc1-c1ccc(C(F)(F)F)cc1 [Compound 92] | < 3 | 3.01 to 10 | – |
| CN(CCN)Cc1c[nH]nc1-c1ccc(OC(F)(F)F)cc1 [Compound 93] | < 3 | 3.01 to 10 | – |
| CN(CCN)Cc1c[nH]nc1-c1ccc(OC(F)F)cc1 [Compound 94] | < 3 | 3.01 to 10 | – |
| CC(C)Oc1ccc(-c2n[nH]cc2CN(C)CCN)cc1Cl [Compound 168] | < 3 | 3.01 to 10 | – |
